Test results published in US20080058272A1, “Nonamer Peptides for Cancer Treatment” (priority 2006, published 2008).

Test system: PBMC of melanoma patients
Experiment: Flow cytometry with HLA-A2/FAPα peptide multimers after in vitro stimulation
Format: cell-based, human
Description: The human HLA-A*0201-positive cell lines T2, a TAP-deficient T cell leukemia/B cell line hybrid and JY, a B-LCL were cultured in RPMI 1640 supplemented with 10% heat inactivated FCS. After informed consent peripheral blood lymphocytes (PBLs) were collected from HLA-A2-positive patients with advanced malignant melanoma. PBLs from HLA-A2-positive healthy individuals were used as controls. PBLs were isolated using Lymphoprep separation (Axis-Shield PoC AS, Oslo, Norway) according to the manufacturer's instructions and used directly or frozen in FCS with 10% DMSO. PBL were cultured in RPMI/10% human AB serum. Dendritic cells (DCs) were generated from PBMC by adherence on culture dishes at 37° C. for 60 minutes in RPMI enriched with 10% human AB serum. […]
After peptide-specific stimulation with FAPα peptides or with FAPα mRNA transfected DC, generated as described previously (Fassnacht et al. 2005) PBLs were stained with HLA-A2/FAPα peptide FITC-labeled multimers (a kind gift of Jorgen Scholler, Dako, Glostrup, Denmark) in PBS/0.1% BSA/FCS for 30 min in the dark, followed by staining with anti-CD8-PE (Dako, Glostrup, Denmark) for 30 min at 4° C. in the dark. Samples were analyzed on BD FACS Canto (Becton Dickinson, Heidelberg, Germany) using WinMDi or FCS Express V3.

## GLFKCGIAV (listed as Homo sapiens) [FAPα^639-647]
After in vitro stimulation with FAPα peptide-loaded dendritic cells
  detection of HLA-A2/FAPα^639-647 specific T cells: able to detect
After stimulation with DCs transfected with FAPα mRNA
  detection of HLA-A2/FAPα^639-647 specific T cells: can be detected
